The target in the assay is T1, human LPA1 (Homo sapiens, UniProt Q92633).
T1 construct: the full-length cDNA for human LPA1 was obtained by PCR of the reverse transcription reaction; expressed in transfected cells
Put plainly: LPA1 calcium flux assay (HLPA1 Ca Flux). The class given is cell-based. The settings on record: Human LPA1 expressing CHO cells, stimulated with 10 nM LPA. How it is done: A 1.1 kb cDNA encoding the human LPA1 receptor was cloned from human lung. Human lung RNA (Clontech Laboratories, Inc. USA) was reverse transcribed using the RETROscript kit (Ambion, Inc.) and the full-length cDNA for human LPA1 was obtained by PCR of the reverse transcription reaction. The nucleotide sequence of the cloned human LPA1 was determined by sequencing and confirmed to be identical to the published human LPA1 sequence (An et al. Biochem. Biophys. Res. Commun. 231:619 (1997). The cDNA was cloned into the pcDNAS/FRT expression plasmid and transfected in CHO cells using lipofectamine 2000 (Invitrogen Corp., USA). Clones stably expressing human LPA1 were selected using hygromycin and identified as cells that show Ca-influx in response to LPA.
Human LPA1 or LPA3 expressing CHO cells are seeded at 20,000-45,000 cells per well in a 96-well poly-D-lysine coated plate one or two days before the assay. Prior to the assay, the cells are washed once with PBS and then cultured in serum-free media overnight. On the day of the assay, a calcium indicator dye (Calcium 4, Molecular Devices) in assay buffer (HBSS with Ca^2+ and Mg^2+ and containing 20 mM Hepes and 0.3% fatty-acid free human serum albumin) is added to each well and incubation continued for 1 hour at 37° C. 10 μl of test compounds in 2.5% DMSO are added to the cells and incubation continued at room temperature for 30 minutes. Cells are the stimulated by the addition of 10 nM LPA and intracellular Ca^2+ measured using the Flexstation 3 (Molecular Devices). IC50s are determined using Graphpad prism analysis of drug titration curves.
On the technique in general: Calcium assays in cells follow changes in intracellular calcium, usually with a dye or a luminescent sensor.

T1 sequence (Q92633 whole entry): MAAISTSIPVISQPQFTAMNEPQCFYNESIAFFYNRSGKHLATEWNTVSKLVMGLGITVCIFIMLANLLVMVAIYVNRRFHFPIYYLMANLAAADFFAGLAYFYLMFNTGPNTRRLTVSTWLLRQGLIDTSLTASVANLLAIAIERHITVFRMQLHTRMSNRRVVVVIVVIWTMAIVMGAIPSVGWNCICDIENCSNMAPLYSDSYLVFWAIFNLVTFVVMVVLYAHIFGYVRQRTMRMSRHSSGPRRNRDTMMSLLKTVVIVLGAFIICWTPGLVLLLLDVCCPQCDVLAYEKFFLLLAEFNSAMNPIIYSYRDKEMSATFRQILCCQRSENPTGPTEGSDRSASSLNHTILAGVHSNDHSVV

The IC50 is the concentration needed to halve the response being measured. Consider `Cc1noc(-c2ccc(-c3cccc(C(=O)O)c3)cc2)c1NC(=O)OC1CCc2ccccc21` (stereo not drawn) [Compound 1-16, 4′-[4-(Indan-1-yloxycarbonylamino)-3-methyl-isoxazol-5-yl]-biphenyl-3-carboxylic acid], for which the IC50 is above 50 µM.

Consider `Cc1noc(-c2ccc(-c3ccc(CC(=O)O)cc3)cc2)c1NC(=O)O[C@H](C)c1cc(Br)cc(Br)c1` [Compound 1-141, (4′-{4-[(R)-1-(3,5-Dibromo-phenyl)-ethoxycarbonylamino]-3-methyl-isoxazol-5-yl}-biphenyl-4-yl)-acetic acid], for which the IC50 lay within 1 to 50 µM.

As to `Cc1noc(-c2ccc(Cc3cccc(C(=O)O)c3)cc2)c1NC(=O)OCc1ccccc1Br` [Compound 1-6, 3-{4-[4-(2-Bromo-benzyloxycarbonylamino)-3-methyl-isoxazol-5-yl]-benzyl}-benzoic acid], the IC50 was in the range of 1 to 50 µM.

In the case of `Cc1noc(-c2ccc(-c3ccccc3C(=O)O)cc2)c1NC(=O)OC(C)c1ccccc1Cl` (stereo not drawn) [Compound 1-52, 4′-{4-[1-(2-Chloro-phenyl)-ethoxycarbonylamino]-3-methyl-isoxazol-5-yl}-biphenyl-2-carboxylic acid], the IC50 fell in the range of 1 to 50 µM.

As for `COc1ccc(C(C)OC(=O)Nc2c(C)noc2-c2ccc(-c3ccc(CC(=O)O)cc3)cc2)c(F)c1` (stereo not drawn) [Compound 1-118, (4′-{4-[1-(2-Fluoro-4-methoxy-phenyl)-ethoxycarbonylamino]-3-methyl-isoxazol-5-yl}-biphenyl-4-yl)-acetic acid], the IC50 was in the range of 0.3 to 1 µM.

Consider `Cc1noc(-c2ccc(-c3ccc(CC(=O)O)cc3)cc2)c1NC(=O)OC(C)Cc1ccccc1` (stereo not drawn) [Compound 1-29, {4′-[3-Methyl-4-(1-methyl-2-phenyl-ethoxycarbonylamino)-isoxazol-5-yl]-biphenyl-4-yl}-acetic acid], for which the half-maximal inhibitory concentration (IC50) lay in the range of 0.3 to 1 µM.

In the case of `Cc1cccc(COC(=O)Nc2c(C)noc2-c2ccc(-c3cccc(C(=O)O)c3)cc2)n1` [Compound 1-13, 4′-[3-Methyl-4-(6-methyl-pyridin-2-ylmethoxycarbonylamino)-isoxazol-5-yl]-biphenyl-3-carboxylic acid], the concentration for half-maximal inhibition (IC50) was in the range of 1 to 50 µM.

Consider `CCOC(=O)Cc1ccc(Sc2ccc(-c3onc(C)c3NC(=O)O[C@H](C)c3ccccc3F)cc2)cc1` [Compound 1-105, [4-(4-{4-[(R)-1-(2-Fluoro-phenyl)-ethoxycarbonylamino]-3-methyl-isoxazol-5-yl}-phenylsulfanyl)-phenyl]-acetic acid ethyl ester], for which the IC50 lay in the range of 1 to 50 µM.

For the compound `CCOC(=O)Cc1ccc(-c2ccc(-c3onc(C)c3NC(=O)OC(C)c3ccccc3F)cn2)cc1` (stereo not drawn) [Compound 1-47], the IC50 is 0.3 to 1 µM.

As to `Cc1noc(-c2csc(-c3ccccc3CC(=O)O)n2)c1NC(=O)O[C@H](C)c1ccccc1F` [Compound 3-5, [2-(4-{4-[(R)-1-(2-Fluoro-phenyl)-ethoxycarbonylamino]-3-methyl-isoxazol-5-yl}-thiazol-2-yl)-phenyl]acetic acid], the IC50 lay in the range of 1 to 50 µM.

In the case of `Cc1noc(-c2ccc(-c3ccc(CC(=O)O)cc3)cc2)c1NC(=O)OC(C)(C)C` [Compound 1-136, [4′-(4-tert-Butoxycarbonylamino-3-methyl-isoxazol-5-yl)-biphenyl-4-yl]-acetic acid], the IC50 fell in the range of 0.3 to 1 µM.

For `Cc1noc(-c2ccc(-c3cncc(C(=O)O)c3)cc2)c1NC(=O)OC(C)c1ccccc1Cl` (stereo not drawn) [Compound 1-55, 5-(4-{4-[1-(2-Chloro-phenyl)-ethoxycarbonylamino]-3-methyl-isoxazol-5-yl}-phenyl)-nicotinic acid], the IC50 is below 0.3 µM.

Take `Cc1noc(-c2ccc(Cc3cc(CC(=O)O)ccc3F)cc2)c1NC(=O)O[C@H](C)c1ccccc1F` [Compound 1-82, [4-Fluoro-3-(4-{4-[(R)-1-(2-fluoro-phenyl)-ethoxycarbonylamino]-3-methyl-isoxazol-5-yl}-benzyl)-phenyl]-acetic acid]: the IC50 was 0.3 to 1 µM.

On to `Cc1noc(-c2ccc(Cc3ccccc3CC(=O)O)cc2)c1NC(=O)OC(C)c1ccccc1Cl` (stereo not drawn) [Compound 1-22, [2-(4-{4-[1-(2-Chloro-phenyl)-ethoxycarbonylamino]-3-methyl-isoxazol-5-yl}-benzyl)-phenyl]-acetic acid], for which the IC50 was below 0.3 µM.

Regarding `Cc1noc(-c2ccc(Sc3ccccc3CC(=O)O)cc2)c1NC(=O)O[C@H](C)c1ccccc1F` [Compound 1-107, [2-(4-{4-[(R)-1-(2-Fluoro-phenyl)-ethoxycarbonylamino]-3-methyl-isoxazol-5-yl}-phenylsulfanyl)-phenyl]-acetic acid], the IC50 lay within 1 to 50 µM.

Consider `Cc1noc(-c2cccc(C3CCC(C(=O)O)CC3)c2)c1NC(=O)OC(C)c1ccccc1Cl` (stereo not drawn) [Compound 1-46, 4-(3-{4-[1-(2-Chloro-phenyl)-ethoxycarbonylamino]-3-methyl-isoxazol-5-yl}-phenyl)-cyclohexanecarboxylic acid], for which the IC50 is below 0.3 µM.

Take `COC(=O)Cn1nnc(-c2ccc(-c3onc(C)c3NC(=O)O[C@H](C)c3ccccc3F)cc2)n1` [Compound 1-134, [5-(4-{4-[(R)-1-(2-Fluoro-phenyl)-ethoxycarbonylamino]-3-methyl-isoxazol-5-yl}-phenyl)-tetrazol-2-yl]-acetic acid methyl ester]: the IC50 was 1 to 50 µM.

Turning to `Cc1noc(-c2ccc(-c3ccc(CC(=O)O)cc3)cc2)c1NC(=O)OCc1ccccc1Cl` [Compound 1-113, {4′-[4-(2-Chloro-benzyloxycarbonylamino)-3-methyl-isoxazol-5-yl]-biphenyl-4-yl}-acetic acid], the IC50 fell in the range of 0.3 to 1 µM.

Consider `Cc1noc(-c2ccc(-c3ccccc3CC(=O)O)cc2)c1NC(=O)O[C@H](C)c1ccccc1` [Compound 1-123], for which the 50% inhibitory concentration (IC50) lay in the range of 1 to 50 µM.

In the case of `Cc1noc(-c2cccc(-c3ccc4c(ccn4CC(=O)O)c3)c2)c1NC(=O)OC(C)c1ccccc1Cl` (stereo not drawn) [Compound 1-40, [5-(3-{4-[1-(2-Chloro-phenyl)-ethoxycarbonylamino]-3-methyl-isoxazol-5-yl}-phenyl)-indol-1-yl]-acetic acid], the IC50 was above 50 µM.

Regarding `COc1ncc(CC(=O)O)cc1-c1cccc(-c2onc(C)c2NC(=O)OC(C)c2ccccc2Cl)c1` (stereo not drawn) [Compound 1-38, [5-(3-{4-[1-(2-Chloro-phenyl)-ethoxycarbonylamino]-3-methyl-isoxazol-5-yl}-phenyl)-6-methoxy-pyridin-3-yl]acetic acid], the IC50 was 1 to 50 µM.

With `Cc1noc(-c2ccc(Sc3ccc(CC(=O)O)cn3)cc2)c1NC(=O)O[C@H](C)c1ccccc1F` [Compound 1-108, [6-(4-{4-[(R)-1-(2-Fluoro-phenyl)-ethoxycarbonylamino]-3-methyl-isoxazol-5-yl}-phenylsulfanyl)-pyridin-3-yl]-acetic acid], the IC50 was below 0.3 µM.

As for `Cc1noc(-c2ccc3cc(-c4ccc(CSCCC(=O)O)cc4)ccc3c2)c1NC(=O)OC(C)c1ccccc1Cl` (stereo not drawn) [Compound 3-2, 3-[4-(6-{4-[1-(2-Chloro-phenyl)-ethoxycarbonylamino]-3-methyl-isoxazol-5-yl}-naphthalen-2-yl)-benzylsulfanyl]-propionic acid], the IC50 fell in the range of 0.3 to 1 µM.

Consider `Cc1noc(-c2csc(-c3cccc(CC(=O)O)c3)n2)c1NC(=O)O[C@H](C)c1ccccc1F` [Compound 3-6, [3-(4-{4-[(R)-1-(2-Fluoro-phenyl)-ethoxycarbonylamino]-3-methyl-isoxazol-5-yl}-thiazol-2-yl)-phenyl]acetic acid], for which the IC50 lay within 0.3 to 1 µM.

For `Cc1cc(-c2onc(C)c2NC(=O)O[C@H](C)c2ccccc2F)ccc1-c1ccc(C(C)C(=O)O)cc1` (stereo partly drawn) [Compound 1-110, 2-(4′-{4-[(R)-1-(2-Fluoro-phenyl)-ethoxycarbonylamino]-3-methyl-isoxazol-5-yl}-2′-methyl-biphenyl-4-yl)-propionic acid], the IC50 is below 0.3 µM.

Turning to `Cc1noc(-c2ccc(OCc3ccc(C(=O)O)cc3)cc2)c1NC(=O)O[C@H](C)c1ccccc1F` [Compound 1-104, 4-(4-{4-[(R)-1-(2-Fluoro-phenyl)-ethoxycarbonylamino]-3-methyl-isoxazol-5-yl}-phenoxymethyl)-benzoic acid], the IC50 lay in the range of 1 to 50 µM.

`Cc1noc(-c2ccc(Sc3cccc(CC(=O)O)c3)cc2)c1NC(=O)O[C@H](C)c1ccccc1F` [Compound 1-106, [3-(4-{4-[(R)-1-(2-Fluoro-phenyl)-ethoxycarbonylamino]-3-methyl-isoxazol-5-yl}-phenylsulfanyl)-phenyl]-acetic acid]: the IC50 fell in the range of 0.3 to 1 µM.

Turning to `Cc1noc(-c2cccc(-c3cc(CC(=O)O)ccc3F)c2)c1NC(=O)OC(C)c1ccccc1Cl` (stereo not drawn) [Compound 1-42, (3′-{4-[1-(2-Chloro-phenyl)-ethoxycarbonylamino]-3-methyl-isoxazol-5-yl}-6-fluoro-biphenyl-3-yl)-acetic acid], the IC50 was in the range of 1 to 50 µM.

For the compound `Cc1noc(-c2ccc(CN3CC(C(=O)O)C3)cc2)c1NC(=O)O[C@H](C)c1ccccc1` [Compound 1-140], the IC50 was in the range of 1 to 50 µM.

Consider `CCOC(=O)Cc1ccc(Oc2ccc(-c3onc(C)c3NC(=O)O[C@H](C)c3ccccc3F)cc2)cc1` [Compound 1-83, [4-(4-{4-[(R)-1-(2-Fluoro-phenyl)-ethoxycarbonylamino]-3-methyl-isoxazol-5-yl}-phenoxy)-phenyl]-acetic acid ethyl ester], for which the IC50 was in the range of 0.3 to 1 µM.

Values taken from US20110301142A1, “ANTAGONISTS OF LYSOPHOSPHATIDIC ACID RECEPTORS” (priority 2008, published 2011).
